Data taken from patent US20120101098A1, “3,28-DISUBSTITUTED BETULINIC ACID DERIVATIVES AS ANTI-HIV AGENTS” (priority 2009, published 2012).
Like-named read-outs stand apart in the source and are kept apart here.

What was measured:
[1] = in vitro
[2] = test system: HIV-1; test: Example 2 anti-HIV bioassay of C-28 ethylene glycol bevirimat analogs; assay type: cell-based; settings: Example 2 compounds (Scheme B)
[3] = test system: mock-infected MT-2 cell; test: Cytotoxicity in mock-infected MT-2 cells (XTT); settings: concentration that inhibits mock-infected MT-2 cell growth by 50%
Description: (§1) HIV-1IIIB Replication Inhibition Assay in MT-2 Lymphocytes. The evaluation of HIV-1 inhibition was carried out as follows. […] Control wells containing virus and cells only (no drug) and cells only (no virus or drug) were also prepared. A second identical set of samples were added to cells under the same conditions without virus (mock infection) for cytotoxicity determinations (CC50 defined below). […] On day 4 PI, the assay was terminated and culture supernatants were harvested for p24 antigen ELISA analysis. The compound cytotoxicity was determined by XTT using the mock-infected sample wells.

[4] = Example 2 bioassay cytotoxicity (CC50); settings: Example 2 compounds (Scheme B)
[5] = test system: HIV-1IIIB; test: HIV-1IIIB replication inhibition assay in MT-2 lymphocytes (p24 antigen ELISA); assay type: cell-based; settings: HIV-1IIIB infected MT-2 cell lines, concentration that inhibits HIV-1IIIB replication by 50%, NS: no suppression at concentrations below the CC50
Description: as §1

[6] = Solubility (stated in words)
[7] = Protein binding affinity (stated in words, Example 2); assay type: in vitro ADME; settings: Example 2 compounds (Scheme B)
[8] = test system: mock-infected MT-4 cell; test: Cytotoxicity in mock-infected MT-4 cells; assay type: cell-based; settings: concentration that inhibits mock-infected MT-4 cell growth by 50%; read-out: CC50
[9] = test system: HIV-1NL4-3; test: HIV-1NL4-3 replication inhibition assay in MT-4 lymphocytes (p24 antigen ELISA); assay type: cell-based; settings: HIV-1NL4-3 infected MT-4 cell lines; concentration that inhibits HIV-1NL4-3 replication by 50%
Description: HIV-1NL4-3 Replication Inhibition Assay in MT-4 Lymphocytes. A previously described HIV-1 infectivity assay was used.^28,33 A 96-well microtiter plate was used to set up the HIV-1NL4-3 replication screening assay. NL4-3 variants at a multiplicity of infection (MOI) of 0.01 were used to infect MT4 cells. Culture supernatants were collected on day 4 post-infection for the p24 antigen capture using an ELISA kit from ZeptoMetrix Corporation (Buffalo, N.Y.).

[10] = test system: mock-infected MT-2 cell
Description: as §1

[11] = human, microsomes
[12] = in vitro; settings: human, mock-infected MT-2 cells
Description: as §1

[13] = In vitro metabolic stability in pooled human liver microsomes; settings: 3 μM, 0.2 mg/mL human liver microsome, NADPH
[14] = Example 2 compounds (Scheme B), C-28 ethylene glycol side chains on bevirimat
[15] = Human immunodeficiency virus 1, MT2

Compound	CC50 [3]	CC50 [4]	EC50 [5]	solubility (in words) ([6]; Example 1 compounds)	solubility (in words) [6, 14]	EC50 [2]	protein binding affinity (in words) [7]	melting point	EC50 [5, 15]	also measured
C=C(C)[C@@H]1CC[C@]2(C(=O)O)CC[C@]3(C)[C@H](CC[C@@H]4[C@@]5(C)CC[C@H](OC(=O)CC(C)(C)C(=O)O)C(C)(C)[C@@H]5CC[C@]43C)[C@@H]12 [Compound 2, bevirimat, reference compound]										CC50 [1]: 16.3 µM; EC50 ([2]; Human immunodeficiency virus 1): 0.063 µM
C=C(COCCN1CCOCC1)[C@@H]1CC[C@]2(C(=O)NCCCCCCCC(=O)O)CC[C@]3(C)[C@H](CC[C@@H]4[C@@]5(C)CC[C@H](O)C(C)(C)[C@@H]5CC[C@]43C)[C@@H]12 [Compound 20, N-[3β-Hydroxy-30-(2′-morpholinoethoxy)-lup-20(29)-en-28-oyl]-8-aminooctanoic acid]	24.8 µM	12.4 µM	1.8 µM	increase in the derivative's solubility	increased solubility	0.17 µM	decreased protein binding affinity			
C=C(COCCN1CCOCC1)[C@@H]1CC[C@]2(C(=O)NCCCCCCCC(=O)NC)CC[C@]3(C)[C@H](CC[C@@H]4[C@@]5(C)CC[C@H](O)C(C)(C)[C@@H]5CC[C@]43C)[C@@H]12 [Compound 21]	22.3 µM	12 µM	0.09 µM	good solubility	increased solubility	0.046 µM	decreased protein binding affinity			CC50 [8]: > 10 µM; EC50 [9]: 0.09 µM
C=C(C)[C@@H]1CC[C@]2(C(=O)NCCCCCCCC(=O)O)CC[C@]3(C)[C@H](CC[C@@H]4[C@@]5(C)CC[C@H](O)C(C)(C)[C@@H]5CC[C@]43C)[C@@H]12 [Compound 23, N-[3β-Hydroxy-lup-20(29)-en-28-oyl]-8-aminooctanoic acid]			3.3 µM							CC50 [10]: 33.4 µM; half life (t1/2, time to lose 50% of parent) [11]: around 35 min
C=C(CBr)[C@@H]1CC[C@]2(C(=O)NC(CC(C)C)C(=O)O)CC[C@]3(C)[C@H](CC[C@@H]4[C@@]5(C)CC[C@H](OC(=O)CC(C)(C)C(=O)O)C(C)(C)[C@@H]5CC[C@]43C)[C@@H]12 (stereo partly drawn) [Compound 30, N-[3β-O-(3′,3′-Dimethylsuccinyl)-30-bromo-lup-20(29)-en-28-oyl]-leucine]								105 to 107 °C	0.011 µM	CC50 at 4 day [12]: 33.2 µM
C=C(C)[C@@H]1CC[C@]2(C(=O)N3CCC(CCCC(=O)O)CC3)CC[C@]3(C)[C@H](CC[C@@H]4[C@@]5(C)CC[C@H](O)C(C)(C)[C@@H]5CC[C@]43C)[C@@H]12 [Compound 38, N-[3β-Hydroxy-lup-20(29)-en-28-oyl]-4-piperidine butyric acid]	41 µM							145 to 146 °C	21.7 µM	Persentage of Remaining Parent Compounds (X ± SD) % ([13]; incubation time 0 min): 100.0%; Persentage of Remaining Parent Compounds (X ± SD) % ([13]; incubation time 5 min): 101.7 ± 4.7%; Persentage of Remaining Parent Compounds (X ± SD) % ([13]; incubation time 15 min): 97.6 ± 6.2%; Persentage of Remaining Parent Compounds (X ± SD) % ([13]; incubation time 30 min): 81.4 ± 8.6%; Persentage of Remaining Parent Compounds (X ± SD) % ([13]; incubation time 60 min): 62.7 ± 4.3%; Persentage of Remaining Parent Compounds (X ± SD) % ([13]; incubation time 120 min): 53.8 ± 3.8%
